Reference: US6500849B1, “1-alkyl-, 1-alkenyl-, and 1-alkynylaryl-2-amino 1,3-propanediols and related compounds” (Aventis Pharmaceuticals Inc., priority 1990, dated 2002)

Key:
[1] = tested on: female Swiss Webster mice; experiment: TPA-induced ear edema assay; type: in vivo; conditions: 10 μg/ear topical, after about 5 hours
Experimental: In the TPA-induced ear edema assay, TPA (12-O-tetradecanoylphorbol-13-acetate) was dissolved in 30/70 propylene glycol/ethanol and was applied to the right ear of groups of 6 female Swiss Webster mice, which were housed together in a cage under standard conditions for 1 week prior to use with food and water ad lib, at a volume of 20 μl so that a total of 10 μg of TPA is delivered to the inner and outer surfaces of the ear. The test compound was dissolved in the vehicle and was applied to the right ear (the inner and outer surface) at a volume of 20 μl so that a total of 10 μg of the compound was delivered to the ear. After about 5 hours, the animals were sacrificed, a 4 mm diameter plug was taken from each ear and weighed. The difference between the right and left ear plug weights for each animal was determined. The antiinflammatory activity of the test compound is expressed as the mean percent change in the ear plug weight of the treated animals compared to the mean percent change in the plug weight of the control animals.

[2] = tested on: female Swiss Webster mice; experiment: Arachidonic acid-induced ear edema assay; type: in vivo; conditions: 1 mg/ear topical, arachidonic acid 4 mg/ear
Experimental: In the arachidonic acid-induced ear edema assay, the test compound was dissolved in 30/70 propylene glycol/ethanol and was applied to both ears of groups of 6 female Swiss Webster mice, which were housed together in a cage under standard conditions for 1 week prior to use with food and water ad lib, at a volume of 20 μl so that a total of 1.0 mg of test compound was delivered to each ear over the inner and outer surfaces. The same volume (20 μl) of vehicle was applied to each ear of a control group of mice. After 30 minutes, arachidonic acid was applied to the right ear of each mouse of each group in the amount of 4 mg/ear. Vehicle was applied to the left ear of each mouse of each group at a volume of 20 μl/ear. After an additional hour, the mice were sacrificed and a 4 mm plug was taken from each ear and weighed. The difference between the right and left ear plugs was determined for each animal. The antiinflammatory activity of the test compound is expressed as the mean percent change in the ear plug weight of the treated animals relative to the mean percent change in weights of control animals' ear. Antiinflammatory activity of representative compounds of the present invention as determined in this assay are presented below in Table 3.

Protein kinase C = Protein kinase C assay (32P incorporation into Type III histone); type: biochemical, rat; conditions: rat brain protein kinase C; phosphatidylserine/diacylglycerol stimulated; read-out: Protein Kinase Inhibitory Activity IC50
Experimental: (see U. Kikkawa, et al., Biochemical and Biophysical Research Communications, 135, 636 (1986) and R. M. Bell, et al. “Methods in Enzymology, Hormone Action,” Part J, P.M. Conn, Ed., Academic Press, Inc., New York, N.Y. 1986, page 353). Protein kinase C enzyme extract was prepared from the brain of male Wistar rats weighing 180 to 200 g and purified by the method of U. Kikkawa, et al., ibid. 636. The purified extract was stored at −80° C., and aliquots were used in the protein kinase C assay performed by a modification of the method of R. M. Bell, et al., ibid. al 354. To perform the assay, duplicate aliquots of duplicate samples are employed. Basal or unstimulated protein kinase C, phosphatidylserine/diacylglycerol stimulated protein kinase C, and test samples are run in each assay. […] The assay tubes were allowed to warm to 25° C. and an 8 μl mixture of adenosine 5′-triphosphate (100 μM) and ^32P-adenosine triphosphate (1 to 2×10^5 counts per minute) was added to each tube for a final volume of 80 μl per tube. After 2 min, the reaction (the incorporation of phosphorous into Type III histone) was terminated by spotting the assay mixture on phosphocellulose paper. The spots are cut out of the paper and the radioactivity (counts per min) of each spot was determined in a scintillation counter.

E. coli = experiment: Aerobic antibacterial assay (agar dilution, Mueller-Hinton agar); type: cell-based
Bact. fragilis = experiment: Anerobic antibacterial assay (agar dilution, Wilkins-Chalgren agar); type: cell-based; conditions: anaerobic, 48 hours at 37° C.
Bact. ovatus = experiment: as above; type: cell-based; conditions: Bact. ovatus 103; anaerobic; 48 hours at 37° C.
Bact. vulgatus = experiment: as above; type: cell-based; conditions: Bact. vulgatus 1446; anaerobic; 48 hours at 37° C.
Bact. thetaiotaom. = experiment: as above; type: cell-based; conditions: anaerobic, 48 hours at 37° C.
Bact. distasonis = experiment: as above; type: cell-based; conditions: Bact. distasonis 1366; anaerobic; 48 hours at 37° C.
Fusobact. varium = experiment: as above; type: cell-based; conditions: anaerobic, 48 hours at 37° C.
Peptostr. anaerobius = experiment: as above; type: cell-based; conditions: Peptostr. anaerobius 932; anaerobic; 48 hours at 37° C.
Propionibact. acnes = experiment: as above; type: cell-based; conditions: anaerobic, 48 hours at 37° C.
Clost. tetani = experiment: as above; type: cell-based; conditions: Clost. tetani 19406; anaerobic; 48 hours at 37° C.
Clost. perfringens = experiment: microbe, parasite or virus in culture; type: cell-based; conditions: Clost. perfringens 194; anaerobic; 48 hours at 37° C.
Staph. aureus = experiment: Aerobic antibacterial assay (agar dilution, Mueller-Hinton agar); conditions: aerobic, 24 hours at 37° C.
Strept. pyogenes = experiment: as above; conditions: aerobic, 24 hours at 37° C.
Strept. faecium = experiment: as above; conditions: Strept. faecium D; aerobic; 24 hours at 37° C.
S. typhimurium = experiment: as above; conditions: S. typhimurium; aerobic; 24 hours at 37° C.
Klebsiella spp. = experiment: as above; conditions: aerobic, 24 hours at 37° C.
E. cloacae = experiment: as above; conditions: aerobic, 24 hours at 37° C.

Compound: CCCCCCCCCCCCC/C=C/[C@@H](O)[C@@H](N)CO [D-erythro-sphingosine, reference compound]
- Antiinflammatory Activity Percent Decrease in Ear Plug Weight at 10 μg/ear [1]: 46%
- Antiinflammatory Activity Percent Decrease in Ear Plug Weight at 1 mg/ear [2]: +9%
- IC50 (Protein kinase C): 6.7 µM
- Antibacterial activity (MIC, mg/l) (E. coli; E. coli 1507E, 24 hours at 37° C.): >100.0 mg/L
- Antibacterial activity (MIC, mg/l) (E. coli; E. coli DC0, 24 hours at 37° C.): >100.0 mg/L
- Antibacterial activity (MIC, mg/l) (E. coli; E. coli DC2, 24 hours at 37° C.): 25.0 mg/L
- Antibacterial activity (MIC, mg/l) (E. coli; E. coli O 78, 24 hours at 37° C.): >100.0 mg/L
- Antibacterial activity (MIC, mg/l) (E. coli; E. coli TEM, 24 hours at 37° C.): >100.0 mg/L
- Antibacterial activity (MIC, mg/l) (Bact. fragilis; Bact. fragilis 312): 25.0 mg/L
- Antibacterial activity (MIC, mg/l) (Bact. fragilis; Bact. fragilis 960): 12.5 mg/L
- Antibacterial activity (MIC, mg/l) (Bact. fragilis; Bact. fragilis 1313): 25.0 mg/L
- Antibacterial activity (MIC, mg/l) (Bact. fragilis; Bact. fragilis 17390): 25.0 mg/L
- Antibacterial activity (MIC, mg/l) (Bact. fragilis; Bact. fragilis 18125): 25.0 mg/L
- Antibacterial activity (MIC, mg/l) (Bact. fragilis; Bact. fragilis 19016): 25.0 mg/L
- Antibacterial activity (MIC, mg/l) (Bact. ovatus): 12.5 mg/L
- Antibacterial activity (MIC, mg/l) (Bact. vulgatus): 25.0 mg/L
- Antibacterial activity (MIC, mg/l) (Bact. thetaiotaom.; Bact. thetaiotaom. 123): 25.0 mg/L
- Antibacterial activity (MIC, mg/l) (Bact. thetaiotaom.; Bact. thetaiotaom. 1428): 25.0 mg/L
- Antibacterial activity (MIC, mg/l) (Bact. thetaiotaom.; Bact. thetaiotaom. 1445): 25.0 mg/L
- Antibacterial activity (MIC, mg/l) (Bact. distasonis): 12.5 mg/L
- Antibacterial activity (MIC, mg/l) (Fusobact. varium; Fusobact. varium 3085): 25.0 mg/L
- Antibacterial activity (MIC, mg/l) (Fusobact. varium; Fusobact. varium 5262): 25.0 mg/L
- Antibacterial activity (MIC, mg/l) (Peptostr. anaerobius): 12.5 mg/L
- Antibacterial activity (MIC, mg/l) (Propionibact. acnes; Propionibact. acnes 6919): 12.5 mg/L
- Antibacterial activity (MIC, mg/l) (Propionibact. acnes; Propionibact. acnes 6922): 12.5 mg/L
- Antibacterial activity (MIC, mg/l) (Clost. tetani): 50.0 mg/L
- Antibacterial activity (MIC, mg/l) (Clost. perfringens): 6.25 mg/L
- Antibacterial activity (MIC, mg/l) (Staph. aureus; Staph. aureus 285): 25.0 mg/L
- Antibacterial activity (MIC, mg/l) (Staph. aureus; Staph. aureus 503): 25.0 mg/L
- Antibacterial activity (MIC, mg/l) (Staph. aureus; Staph. aureus SG511): 25.0 mg/L
- Antibacterial activity (MIC, mg/l) (Strept. pyogenes; Strept. pyogenes 77 A): 25.0 mg/L
- Antibacterial activity (MIC, mg/l) (Strept. pyogenes; Strept. pyogenes 308 A): 12.5 mg/L
- Antibacterial activity (MIC, mg/l) (Strept. faecium): 25.0 mg/L
- Antibacterial activity (MIC, mg/l) (S. typhimurium): >100.0 mg/L
- Antibacterial activity (MIC, mg/l) (Klebsiella spp.; Klebsiella spp. 1082E): 25.0 mg/L
- Antibacterial activity (MIC, mg/l) (Klebsiella spp.; Klebsiella spp. 1522E): >100.0 mg/L
- Antibacterial activity (MIC, mg/l) (E. cloacae; E. cloacae 1321E): 50.0 mg/L
- Antibacterial activity (MIC, mg/l) (E. cloacae; E. cloacae P99): >100.0 mg/L
